Experimental findings from patent US11738021B2, “Composition and method for preventing, alleviating or treating cancer” (CKP Therapeutics, Inc., priority 2021, dated 2023) are described below.

Each structure is given as a SMILES string.

In data set [1] the test system is YUMC-P1 cell line xenograft. Conditions: YUMC-P1 xenograft mice, oral, 13 times over 41 days, doses per Table 3.
Description: (§1) 15 days after injection of each of the cell lines, when the tumor volume reached about 100 to 200 mm^3, mice having a tumor with the above volume were randomly grouped (n=10/group), and then each drug was administered to the mice 13 times for a total of 41 days under the conditions shown in Table 3 below. […] Here, nothing was administered to the control group.
Another data set relates to YUMC-P1 cell line. In words: MTT cell viability, anticancer drug-resistant YUMC-P1 cell line. Type of data set: cell-based, human. The settings on record: drug alone at 200 μM, FIG. 2.
The test system of data set [2] is YUMC-H2 cell line xenograft. Conditions: YUMC-H2 xenograft mice, oral, 13 times over 41 days, doses per Table 3.
Description: as §1
The test system of a further data set is YUMC-H2 cell line. In words: MTT cell viability, anticancer drug-resistant YUMC-H2 cell line. Conditions: drug alone at 200 μM, FIG. 2. In kind it is cell-based, human.
The test system of data set [3] is YUMC-C1 cell line xenograft. Type of data set: in vivo. The settings on record: YUMC-C1 xenograft mice, oral, 13 times over 41 days, doses per Table 3.
Description: as §1
For the next data set, the system named is YUMC-C1 cell line. The settings on record: drug alone at 200 μM, FIG. 2.

Consider `CNC(=O)c1cc(Oc2ccc(NC(=O)Nc3ccc(Cl)c(C(F)(F)F)c3)cc2)ccn1` [sorafenib], for which the tumor volume result in data set [1] (FIG. 3) and in data set [2] (FIG. 3) was “no significant changes” in each case. In addition, the tumor weight result in data set [1] (FIG. 4) and in data set [2] (FIG. 4) was “no significant changes” each time. In addition, the cells survived entry in the data set on YUMC-P1 cell line and in the data set with YUMC-H2 cell line was “more than 80%” in each case.
With `Cc1nc2c(C)cccc2c2c1CCN2c1ccccc1F` [Candidate 19], the “changes in mouse body weight (toxicity)” value in data set [1] (FIG. 5), in data set [3] (FIG. 5) and in data set [2] (FIG. 5) was “no changes” throughout.
As for `O=C1[O][Pt]2([NH][C@@H]3CCCC[C@H]3[NH]2)[O]C1=O` [oxaliplatin], the tumor volume result in data set [3] (vs control, FIG. 3) was “did not significantly decrease”. Further, in data set [3] (vs control, FIG. 4), the tumor weight result is recorded as “did not significantly decrease”. Also, in the data set on YUMC-C1 cell line, the cells survived entry is “more than 80%”.
